Test results reported in ChEMBL document CHEMBL1201862, “PubChem BioAssay data set” (2004).
Calls of active or inactive are those of the source. Unless noted, no cut-off for these calls is given here.

Columns and labels:
[1] = target: E3 ubiquitin-protein ligase Mdm2/Protein Mdm4 (Homo sapiens, UniProt O15151+Q00987); experiment: disruption of Mdm2/MdmX protein binding – luminescence detection, dose response (AID 504593); assay type: functional
[2] = target: T1, Heat shock factor protein 1 (Mus musculus, UniProt P38532); experiment: enhancement of HSF1-driven luciferase signal – cell-based, NIH3T3, luminescence, dose retest, confirmation (AID 435004); assay type: functional;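 note: stress induced by proteasome inhibitor MG132 added 30 min after compound; luciferase reporter driven by HSF1 response element in NIH3T3 cells; actives raise luminescence as potentiators of the MG132 stress response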
T1 sequence (P38532 whole entry): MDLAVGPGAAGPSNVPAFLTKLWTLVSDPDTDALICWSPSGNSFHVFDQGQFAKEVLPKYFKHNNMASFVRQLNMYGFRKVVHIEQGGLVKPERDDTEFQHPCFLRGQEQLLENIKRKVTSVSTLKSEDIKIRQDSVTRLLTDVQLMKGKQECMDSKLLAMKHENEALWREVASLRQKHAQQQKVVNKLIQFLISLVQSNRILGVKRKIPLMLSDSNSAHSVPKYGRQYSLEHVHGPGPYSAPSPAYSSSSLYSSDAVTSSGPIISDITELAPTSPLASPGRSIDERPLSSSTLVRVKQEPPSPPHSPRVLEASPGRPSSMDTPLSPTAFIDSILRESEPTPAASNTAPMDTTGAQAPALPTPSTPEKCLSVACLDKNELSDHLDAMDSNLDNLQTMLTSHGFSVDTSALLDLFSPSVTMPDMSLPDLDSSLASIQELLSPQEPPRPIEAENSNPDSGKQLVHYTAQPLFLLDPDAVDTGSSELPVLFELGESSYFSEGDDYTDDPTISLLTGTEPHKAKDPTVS

[3] = reduction of Shn3 3'UTR-driven luciferase in osteoblasts – cell-based, Clone20 osteoblasts, firefly luciferase, cherry-picked, dose response (AID 624132); assay type: functional;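 note: firefly luciferase luminescence from reporter carrying the Shn3 3'UTR in osteoblasts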
[4] = loss of viability in HepG2 cells – cell-based, CellTiter-Glo, cherry-picked, cytotoxicity control for Shn3 inhibitor project, dose response (AID 624134); assay type: functional
[5] = non-specific 3'UTR reporter inhibition in Clone20-Shn3RL – cell-based, Renilla luciferase, cherry-picked, counter-screen for Shn3 inhibitor project, dose response (AID 624133); assay type: functional
[6] = viability of uninfected HEp-2 cells – cell-based, HTS, cytotoxicity control for RSV inhibitor project, dose response (AID 2410); assay type: functional; conditions: human respiratory syncytial virus
[7] = target: Lysosomal acid glucosylceramidase (Homo sapiens, UniProt P04062); experiment: Dose response cell-based high throughput screening assay to identify enhancers of beta-glucosidase activity. [Related pubchem assays: 784 ]; assay type: functional
HT-29 = experiment: Late-stage luminescence-based cell-based dose response assay to identify inhibitors of NADPH oxidase 1 (NOX1): Cytotoxicity assay 2.; assay type: functional; conditions: Homo sapiens
[8] = target: Alpha-2C adrenergic receptor (Homo sapiens, UniProt P18825); experiment: Late-stage radioligand binding dose response assay to identify inhibitors of NADPH oxidase 1 (NOX1): PDSP screen Ki Set 2. [Related pubchem assays (depositor defined):AID1792, AID1796, AID1823, AID2532, AID2538, AID2539, AID2541, AID2545, AID2556, AID2664, AID2752, AID2773, AID2808, AID2819, AID434953, AID434974, AID434992, AID434993, AID434997 …
[9] = target: 5-hydroxytryptamine receptor 2B (Homo sapiens, UniProt P41595); experiment: as above
[10] = target: Kappa-type opioid receptor (Homo sapiens, UniProt P41145); experiment: as above
D(3) dopamine receptor = D(3) dopamine receptor (Homo sapiens, UniProt P35462); experiment: as above
[11] = target: Muscarinic acetylcholine receptor M1 (Homo sapiens, UniProt P11229); experiment: as above
[12] = target: Alpha-2B adrenergic receptor (Homo sapiens, UniProt P18089); experiment: as above
[13] = target: Muscarinic acetylcholine receptor M2 (Homo sapiens, UniProt P08172); experiment: as above
[14] = target: Alpha-2A adrenergic receptor (Homo sapiens, UniProt P08913); experiment: as above
[15] = target: T2, Rac GTPase-activating protein 1 (Homo sapiens, UniProt Q9H0H5); experiment: blockers of MgcRacGAP-driven Rac1 GTP hydrolysis – biochemical, ADP Hunter fluorescence, primary and confirmatory, confirmation (AID 624330); assay type: functional
T2 sequence (Q9H0H5 whole entry): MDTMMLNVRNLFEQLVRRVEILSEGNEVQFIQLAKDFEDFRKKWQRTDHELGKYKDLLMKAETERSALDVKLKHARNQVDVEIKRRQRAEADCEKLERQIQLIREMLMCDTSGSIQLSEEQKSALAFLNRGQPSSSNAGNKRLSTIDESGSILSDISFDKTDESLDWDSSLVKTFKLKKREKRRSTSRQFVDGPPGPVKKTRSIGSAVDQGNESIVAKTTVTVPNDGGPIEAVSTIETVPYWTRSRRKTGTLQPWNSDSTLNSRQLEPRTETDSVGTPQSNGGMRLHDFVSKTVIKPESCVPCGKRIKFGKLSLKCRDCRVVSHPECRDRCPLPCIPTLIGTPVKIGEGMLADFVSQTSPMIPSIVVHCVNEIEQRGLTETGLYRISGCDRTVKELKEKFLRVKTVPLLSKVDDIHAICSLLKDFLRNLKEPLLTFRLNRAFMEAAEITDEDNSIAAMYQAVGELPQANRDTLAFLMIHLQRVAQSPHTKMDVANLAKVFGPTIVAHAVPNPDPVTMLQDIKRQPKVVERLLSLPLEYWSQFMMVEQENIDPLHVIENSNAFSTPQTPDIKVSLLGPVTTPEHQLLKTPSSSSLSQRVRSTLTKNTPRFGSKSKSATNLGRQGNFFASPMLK

[16] = target: Glyceraldehyde-3-phosphate dehydrogenase (Homo sapiens, UniProt P04406)
[17] = target: Alkaline phosphatase, placental type (Homo sapiens, UniProt P05187); experiment: human placental alkaline phosphatase inhibition – biochemical, luminescence, confirmation (AID 1512); assay type: functional
[18] = target: T3, Runt-related transcription factor 1/Core-binding factor subunit beta (Homo sapiens, UniProt Q01196+Q13951); experiment: disruptors of Runt domain/CBFb-SMMHC interaction – biochemical, FRET, Cerulean-Runt, Venus-CBFb-SMMHC, uHTS, […] (AID 1434); assay type: protein assay
[19] = target: T3, Runt-related transcription factor 1/Core-binding factor subunit beta; experiment: Runt domain/CBFb-SMMHC interaction disruptors – biochemical, TR-FRET (AID 1438); assay type: protein assay
[20] = target: T4, Aryl hydrocarbon receptor (Homo sapiens, UniProt P35869); experiment: Luminescence-based cell-based high throughput dose response assay for activators of the Aryl Hydrocarbon Receptor (AHR). [Related pubchem assays: 2796 (Primary screen (AHR activators in singlicate)), 2845 (Confirmation screen (AHR activators in triplicate)), 434939 (Counterscreen (PXR activators in triplicate)), 2804 (Summary (AHR activators))]; assay type: ADME
T4 sequence (P35869 whole entry): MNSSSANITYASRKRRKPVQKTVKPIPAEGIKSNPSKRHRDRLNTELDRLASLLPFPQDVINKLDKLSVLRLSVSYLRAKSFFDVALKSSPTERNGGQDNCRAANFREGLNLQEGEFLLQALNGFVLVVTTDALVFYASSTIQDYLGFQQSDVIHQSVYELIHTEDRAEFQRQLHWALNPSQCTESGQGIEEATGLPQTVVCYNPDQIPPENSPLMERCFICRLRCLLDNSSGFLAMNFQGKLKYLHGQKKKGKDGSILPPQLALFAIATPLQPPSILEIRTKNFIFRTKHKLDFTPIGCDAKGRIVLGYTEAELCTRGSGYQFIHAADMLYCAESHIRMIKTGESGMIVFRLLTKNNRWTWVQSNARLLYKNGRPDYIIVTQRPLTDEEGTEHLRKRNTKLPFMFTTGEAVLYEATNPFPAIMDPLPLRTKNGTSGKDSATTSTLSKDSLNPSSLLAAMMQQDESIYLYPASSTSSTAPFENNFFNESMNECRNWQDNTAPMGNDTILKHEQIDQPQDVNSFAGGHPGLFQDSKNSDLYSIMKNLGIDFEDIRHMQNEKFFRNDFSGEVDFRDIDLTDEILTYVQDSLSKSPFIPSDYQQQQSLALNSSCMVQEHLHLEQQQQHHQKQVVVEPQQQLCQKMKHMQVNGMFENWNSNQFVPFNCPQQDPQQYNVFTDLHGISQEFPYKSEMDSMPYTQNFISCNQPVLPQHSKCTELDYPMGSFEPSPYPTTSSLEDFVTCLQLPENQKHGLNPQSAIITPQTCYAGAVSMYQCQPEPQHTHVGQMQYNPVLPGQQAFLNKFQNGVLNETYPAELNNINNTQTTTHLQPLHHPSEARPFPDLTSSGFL

Troponin, cardiac muscle = Troponin, cardiac muscle (Homo sapiens, UniProt P19429+P45379+P63316); experiment: Fluorescence-based biochemical high throughput dose response assay for activators of the calcium sensitivity of cardiac Regulated Thin Filaments (RTF). [Related pubchem assays (depositor defined):AID493008, AID493018, AID504382, AID504383]; assay type: protein-complex assay
[21] = target: T5, DNA repair and recombination protein RAD54-like (Homo sapiens, UniProt Q92698); experiment: RAD54 Holliday junction migration blockers – biochemical, fluorescence, cherry-picked samples, dose series, confirmation (AID 651657); assay type: functional
T5 sequence (Q92698 whole entry): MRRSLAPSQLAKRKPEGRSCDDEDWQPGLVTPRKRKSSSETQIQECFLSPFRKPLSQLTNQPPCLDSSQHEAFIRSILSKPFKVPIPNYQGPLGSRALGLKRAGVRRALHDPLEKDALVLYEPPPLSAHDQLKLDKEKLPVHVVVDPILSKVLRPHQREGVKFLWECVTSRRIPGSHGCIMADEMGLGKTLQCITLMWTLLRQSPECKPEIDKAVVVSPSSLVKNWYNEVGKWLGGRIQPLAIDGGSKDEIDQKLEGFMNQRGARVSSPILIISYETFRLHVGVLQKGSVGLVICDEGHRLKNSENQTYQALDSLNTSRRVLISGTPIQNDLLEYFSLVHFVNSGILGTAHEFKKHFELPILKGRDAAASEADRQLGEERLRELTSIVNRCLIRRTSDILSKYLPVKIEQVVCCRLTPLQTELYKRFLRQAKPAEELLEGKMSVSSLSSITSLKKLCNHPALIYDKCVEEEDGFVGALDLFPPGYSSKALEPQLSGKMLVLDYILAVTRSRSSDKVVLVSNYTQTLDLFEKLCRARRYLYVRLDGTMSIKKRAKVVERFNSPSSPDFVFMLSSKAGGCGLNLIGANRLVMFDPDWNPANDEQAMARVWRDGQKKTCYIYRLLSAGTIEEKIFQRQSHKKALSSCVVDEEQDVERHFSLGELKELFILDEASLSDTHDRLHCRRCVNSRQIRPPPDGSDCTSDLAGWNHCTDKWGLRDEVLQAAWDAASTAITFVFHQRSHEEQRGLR

[22] = target: DNA damage-inducible transcript 3 protein (Mus musculus, UniProt P35639); assay type: functional, Cricetulus griseus
[23] = target: T6, Type-1 angiotensin II receptor (Homo sapiens, UniProt P30556); experiment: agonist activity at AGTR1 – cell-based, uHTS hits, selectivity assay for APJ receptor agonist project, dose response (AID 488865); assay type: functional;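 note: beta-arrestin recruitment to AT1 measured by enzyme fragment complementation luminescence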
T6 sequence (P30556 whole entry): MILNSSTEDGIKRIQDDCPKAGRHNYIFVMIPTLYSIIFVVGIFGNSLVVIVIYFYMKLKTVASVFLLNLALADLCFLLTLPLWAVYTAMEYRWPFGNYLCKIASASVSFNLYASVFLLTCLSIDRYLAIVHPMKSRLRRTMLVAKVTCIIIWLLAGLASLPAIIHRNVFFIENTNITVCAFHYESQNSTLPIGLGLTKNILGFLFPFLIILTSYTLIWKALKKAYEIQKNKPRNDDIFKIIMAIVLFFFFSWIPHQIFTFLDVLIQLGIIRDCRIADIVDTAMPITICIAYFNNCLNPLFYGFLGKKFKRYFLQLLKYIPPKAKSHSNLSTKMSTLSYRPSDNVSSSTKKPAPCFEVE

For `CCOC(=O)/C=C/C(=O)OCC(=O)NC(c1ccccc1)c1ccccc1`, the IC50 [1] was 3.28 µM (active), the EC50 [2] was 13.4 µM (active) and the AC50 [3] was 5.14 µM (active). The AC50 [4] was > 70 µM (inactive) and the AC50 [5] was 22 µM (active).

In the case of `CC(=O)c1ccc2c(c1)Nc1ccccc1S2`, the CC50 [6] is reported as 18.5 µM (active), the EC50 [7] is reported as > 50 µM (not active) and the CC50 (HT-29) is reported as > 20 µM (not active). For the same compound, the Ki [8] was > 10 µM (inactive), the Ki [9] was 0.3 µM (active) and the Ki [10] was > 10 µM (inactive). For the same compound, the Ki (D(3) dopamine receptor) was > 10 µM (inactive), the Ki [11] was > 10 µM (inactive) and the Ki [12] was > 10 µM (inactive). For the same compound, the Ki [13] was > 10 µM (inactive), the Ki [14] was > 10 µM (inactive) and the IC50 [15] was 31.6 µM (active).

With `O=C(NCCO)c1cc(-c2ccc(Cl)cc2Cl)n[nH]1` the IC50 [16] was > 100 µM (not active) and the IC50 [17] was 21.1 µM (active).

For `CC(=O)Nc1ccc2cc3ccc(NC(C)=O)cc3nc2c1`, the IC50 [18] was 14.1 µM (active), the IC50 [19] was > 100 µM (inactive) and the EC50 [20] was > 3.39 µM (active). The EC50 (Troponin, cardiac muscle) was 38.3 µM (inactive) and the AC50 [21] was 86.2 µM (active).

In the case of `C/C(=N\NC(=O)c1nn(C)c(C)c1Br)c1ccc(NC(=O)c2ccoc2C)cc1`, the “Absolute IC50 (CHOP)” value [22] is reported as 10 µM.

In the case of `CCCSc1nc(O)c(CC)c(=O)n1C(C)CC` (stereo unspecified), the EC50 [23] is reported as > 100 µM (inactive).
